Biological target: T1, NS3 genotype 3a protease (UniProt Q81258)
T1 construct: Purified NS3 protease domain (amino acids 1-181) of the genotype 1b and 3a virus were generated as above; fused on or other part: N-terminal hexahistidine tag and rTEV protease cleavage site (vector p28-N6H-Tev-NS3(181)3)
T1 sequence (Q81258 1033-1663): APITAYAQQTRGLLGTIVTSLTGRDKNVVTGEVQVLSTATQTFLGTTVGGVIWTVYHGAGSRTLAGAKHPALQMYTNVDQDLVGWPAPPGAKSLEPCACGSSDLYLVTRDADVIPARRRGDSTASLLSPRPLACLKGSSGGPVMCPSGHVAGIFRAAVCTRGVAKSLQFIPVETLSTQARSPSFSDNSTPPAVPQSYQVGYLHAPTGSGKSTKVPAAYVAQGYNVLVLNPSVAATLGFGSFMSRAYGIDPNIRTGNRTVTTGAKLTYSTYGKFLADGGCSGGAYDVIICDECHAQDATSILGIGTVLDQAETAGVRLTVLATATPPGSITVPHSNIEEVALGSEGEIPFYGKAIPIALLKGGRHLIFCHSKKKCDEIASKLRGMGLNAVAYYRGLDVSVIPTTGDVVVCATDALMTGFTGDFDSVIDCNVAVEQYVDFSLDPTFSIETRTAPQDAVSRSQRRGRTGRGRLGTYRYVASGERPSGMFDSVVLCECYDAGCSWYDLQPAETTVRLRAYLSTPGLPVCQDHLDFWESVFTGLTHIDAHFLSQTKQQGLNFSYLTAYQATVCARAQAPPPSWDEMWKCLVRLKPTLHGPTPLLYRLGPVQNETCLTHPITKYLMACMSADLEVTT
Test: Ki determination, NS3 protease genotype 3a (fluorogenic depsipeptide substrate)
Type: biochemical, hepatitis C virus
Details: 200 pM enzyme, 20 μM NS4A peptide, 2 μM substrate, read-out: Ki 3A
Text: The coding sequences for the genotype 3 HCV protease domain was amplified by RT-PCR using a Titan One Tube RT-PCR Kit (Roche, Indianapolis, Ind.) and RNA extracted from HCV-positive human serum (BBI Diagnostics, MA) using a QIAmp UltraSens Virus Kit (Qiagen, Valencia, Calif.). 5′ PCR primers were designed to encode N-terminal hexahistidine tags and to insert in-frame rTEV protease cleavage sites into the NS3 protease coding sequences. The resulting DNA fragments were cloned into pET28 yielding the expression vectors p28-N6H-Tev-NS3(181)1a and p28-N6H-Tev-NS3(181)3, respectively.
BL21AI bacteria (Invitrogen, Carlsbad, Calif.) were transformed with genotype 1b or 3 NS3 expression vectors and used to inoculate a 20 L fermentation vessel (Sartorius BBI System Inc., Bethlehem, Pa.), containing 18 L of fresh 2YT medium supplemented with 50 μg/mL kanamycin. When cell densities reached an OD600 of 1, the temperature of the cultures was reduced from 37° C. to 28° C. and induction was immediately initiated by the addition of 30 μM ZnSO4, 14 mM L-arabinose and 1 mM Isopropyl β-D-thiogalactoside (IPTG) final concentrations. Cells were harvested by centrifugation four hours post-induction and were stored as frozen pellets at −80° C. prior to NS3 protein purification.
Bacterial pellets collected from the expression of genotype 3 HCV NS3 protease were homogenized in Lysis Buffer (25 mM tris, pH 7.5 buffer containing 150 mM NaCl and 1 mM phenylmethanesulfonyl fluoride (PMSF)) and passed through a microfluidizer at 18,000 pounds/in^2. Homogenized cell lysates were centrifuged at 30,000×g for 30 minutes at 4° C. The resulting P1 pellets were washed with Wash Buffer I (25 mM tris, pH 7.5 containing 1% CHAPS) followed by centrifugation at 10,000×g for 30 minutes at 4° C. […] The resulting P3 pellets were resuspended in Solubilization Buffer (20 ml of 25 mM tris, pH 7.5 containing 150 mM NaCl and 8 M urea) and incubated at 4° C. for one hour. Solubilized proteins were passed through a 0.45 micron filter. Protein concentrations were measured and the solutions were adjusted to 40 mM DTT, incubated for 30 minutes at 4° C. and then quickly diluted into Refolding Buffer (25 mM tris, pH 8.5, 0.8 M Guanidine-HCl, 0.4 M L-Arginine, 10 mM ZnSO4) while stirring. Protein solutions were incubated at 4° C. overnight to allow refolding. Refolded proteases were centrifuged at 30,000×g for 10 minutes to remove residual precipitates. Final protein concentrations were then measured and the NS3 proteases were aliquoted, snap frozen in liquid nitrogen and stored at −80° C.
Purified NS3 protease domain (amino acids 1-181) of the genotype 1b and 3a virus were generated as above. The internally quenched fluorogenic depsipeptide substrate Ac-DED(Edans)-EEAbuψ[COO]ASK(Dabcyl)-NH2 and a synthetic peptide containing the hydrophobic core residues of the NS4A protein cofactor ([…]; NS4A peptide) were obtained from Anaspec, Inc. (San Jose, Calif.). Other chemicals and biochemicals were of reagent grade or better and were purchased from standard suppliers.
Reactions were run at room temperature in buffer consisting of 50 mM HEPES, 40% glycerol, 0.05% Triton X-100, 10 mM DTT, and 10% DMSO. The final assay solutions contained 50 pM NS3 genotype 1b protease or 200 pM genotype 3a protease, 20 μM NS4A peptide, and 4 μM substrate (genotype 1 b) or 2 μM substrate (genotype 3a). Inhibitor concentrations varied from 100 nM to 5 pM in 3-fold dilutions, and no-inhibitor controls were included.
Compound dilutions were made in DMSO at 20× final concentration. Reaction mixtures were prepared in 96-well assay plates. A solution of enzyme and NS4A peptide in assay buffer (25 μL volume with both reagents at 4× final concentration) was mixed with 45 μL assay buffer and 5 μL of either inhibitor or DMSO, and pre-incubated at room temperature for 1 hour. The reaction was started by addition of 25 μL substrate solution at 4× final concentration. […]

Row | Compound | Ki [nM]
1 | CC[C@@H]1[C@@H]2CN(C(=O)[C@H](C(C)(C)C)NC(=O)O[C@]3(C)CCC[C@H]3CCCCCc3nc4ccc(OC)cc4nc3O2)[C@@H]1C(=O)N[C@]1(C(=O)NS(=O)(=O)C2CC2)C[C@H]1C(F)F [Example 40, (3aR,7S,10S,11S,12R,24aR)-7-tert-butyl-N-[(1R,2R)-1-[(cyclopropylsulfonyl)carbamoyl]-2-(difluoromethyl)cyclopropyl]-11-ethyl-16-methoxy-3a-methyl-5,8-dioxo-1,2,3,3a,5,6,7,8,11,12,20,21,22,23,24,24a-hexadecahydro-10H-9,12-methanocyclopenta[18,19][1,10,3,6]dioxadiazacyclononadecino[11,12-b]quinoxaline-10-carboxamide] | 0.18
2 | COc1ccc2nc3c(nc2c1)O[C@H]1CN(C(=O)[C@H](C(C)(C)C)NC(=O)O[C@@]2(C)C[C@@H]2CCCCC3)[C@H](C(=O)N[C@]2(C(=O)NS(=O)(=O)C3(C)CC3)C[C@H]2C(F)F)[C@@H]1C [Example 45, (1aS,5S,8S,9S,10R,22aS)-5-tert-butyl-N-[(1R,2R)-2-(difluoromethyl)-1-{[(1-methylcyclopropyl)sulfonyl]carbamoyl}cyclopropyl]-14-methoxy-1a,9-dimethyl-3,6-dioxo-1,1a,3,4,5,6,9,10,18,19,20,21,22,22a-tetradecahydro-8H-7,10-methanocyclopropa[18,19][1,10,3,6]dioxadiazacyclononadecino[11,12-b]quinoxaline-8-carboxamide] | 0.48
3 | COc1ccc2nc3c(nc2c1)O[C@H]1CN(C(=O)[C@H](C(C)(C)C)NC(=O)O[C@@H]2C[C@H]2CCCCC3)[C@H](C(=O)N[C@]2(C(=O)NS(=O)(=O)C3(C)CC3)C[C@H]2C(F)F)[C@@H]1CC#N [Example 50, (1aR,5S,8S,9S,10R,22aR)-5-tert-butyl-9-(cyanomethyl)-N-[(1R,2R)-2-(difluoromethyl)-1-{[(1-methylcyclopropyl)sulfonyl]carbamoyl}cyclopropyl]-14-methoxy-3,6-dioxo-1,1a,3,4,5,6,9,10,18,19,20,21,22,22a-tetradecahydro-8H-7,10-methanocyclopropa[18,19][1,10,3,6]dioxadiazacyclononadecino[11,12-b]quinoxaline-8-carboxamide] | > 100
4 | CC[C@@H]1[C@@H]2CN(C(=O)[C@H](C(C)(C)C)NC(=O)O[C@]3(C)CCC[C@H]3CCCCCc3nc4ccc(OC)cc4nc3O2)[C@@H]1C(=O)N[C@]1(C(=O)NS(=O)(=O)C2CC2)C[C@H]1CC [Example 51] | 0.84
5 | CC[C@@H]1[C@@H]2CN(C(=O)[C@H](C(C)(C)C)NC(=O)O[C@]3(C)CCC[C@H]3CCCCCc3nc4ccc(OC)cc4nc3O2)[C@@H]1C(=O)N[C@]1(C(=O)NS(=O)(=O)C2(C)CC2)C[C@H]1CCF [Example 52, (3aR,7S,10S,11S,12R,24aR)-7-tert-butyl-11-ethyl-N-[(1R,2S)-2-(2-fluoroethyl)-1-{[(1-methylcyclopropyl)sulfonyl]carbamoyl}cyclopropyl]-16-methoxy-3a-methyl-5,8-dioxo-1,2,3,3a,5,6,7,8,11,12,20,21,22,23,24,24a-hexadecahydro-10H-9,12-methanocyclopenta[18,19][1,10,3,6]dioxadiazacyclononadecino[11,12-b]quinoxaline-10-carboxamide] | 1.3
6 | CC[C@@H]1[C@@H]2CN(C(=O)[C@H](C(C)(C)C)NC(=O)O[C@@H]3C[C@H]3CCCCC(F)(F)c3nc4ccccc4nc3O2)[C@@H]1C(=O)N[C@]1(C(=O)NS(=O)(=O)C2CC2)C[C@H]1C(F)F [Example 53, (1aR,5S,8S,9S,10R,22aR)-5-tert-butyl-N-[(1R,2R)-1-[(cyclopropylsulfonyl)carbamoyl]-2-(difluoromethyl)cyclopropyl]-9-ethyl-18,18-difluoro-3,6-dioxo-1,1a,3,4,5,6,9,10,18,19,20,21,22,22a-tetradecahydro-8H-7,10-methanocyclopropa[18,19][1,10,3,6]dioxadiazacyclononadecino[11,12-b]quinoxaline-8-carboxamide] | 0.09
7 | CC[C@@H]1[C@@H]2CN(C(=O)[C@H](C(C)(C)C)NC(=O)O[C@@H]3C[C@H]3CCCCC(F)(F)c3nc4ccccc4nc3O2)[C@@H]1C(=O)N[C@]1(C(=O)NS(=O)(=O)C2CC2)C[C@H]1CC [Example 54, (1aR,5S,8S,9S,10R,22aR)-5-tert-butyl-N-{(1R,2R)-1-[(cyclopropylsulfonyl)carbamoyl]-2-ethylcyclopropyl}-9-ethyl-18,18-difluoro-3,6-dioxo-1,1a,3,4,5,6,9,10,18,19,20,21,22,22a-tetradecahydro-8H-7,10-methanocyclopropa[18,19][1,10,3,6]dioxadiazacyclononadecino[11,12-b]quinoxaline-8-carboxamide] | 0.5

Same assay, conditions: read-out: Ki 3A, 200 pM enzyme, 20 μM NS4A peptide, 2 μM substrate

Row | Compound | Ki [nM]
8 | C=C[C@@H]1C[C@]1(NC(=O)[C@@H]1[C@H](C)[C@@H]2CN1C(=O)[C@H](C(C)(C)C)NC(=O)O[C@@H]1C[C@H]1CCCCCc1nc3ccc(OC)cc3nc1O2)C(=O)NS(=O)(=O)C1CC1 [Example 48, (1aR,5S,8S,9S,10R,22aR)-5-tert-butyl-N-{(1R,2S)-1-[(cyclopropylsulfonyl)carbamoyl]-2-ethenylcyclopropyl}-14-methoxy-9-methyl-3,6-dioxo-1,1a,3,4,5,6,9,10,18,19,20,21,22,22a-tetradecahydro-8H-7,10-methanocyclopropa[18,19][1,10,3,6]dioxadiazacyclononadecino[11,12-b]quinoxaline-8-carboxamide] | 0.09
9 | COc1ccc2nc3c(nc2c1)O[C@H]1CN(C(=O)[C@H](C(C)(C)C)NC(=O)O[C@@H]2C[C@@H]4C[C@@H]4[C@H]2CCCCC3)[C@H](C(=O)N[C@]2(C(=O)NS(=O)(=O)C3(C)CC3)C[C@H]2C(F)F)[C@@H]1C [Example 49, (1aS,2aR,6S,9S,10S,11R,23aR,23bS)-6-tert-butyl-N-[(1R,2R)-2-(difluoromethyl)-1-{[(1-methylcyclopropyl)sulfonyl]carbamoyl}cyclopropyl]-15-methoxy-10-methyl-4,7-dioxo-1a,2,2a,4,5,6,7,10,11,19,20,21,22,23,23a,23b-hexadecahydro-1H,9H-8,11-methanocyclopropa[4′,5′]cyclopenta[1′,2′:18,19][1,10,3,6]dioxadiazacyclononade cino[11,12-b]quinoxaline-9-carboxamide] | 0.07

Source: US20150175655A1 (priority 2012, published 2015)
